Values joined by “and” are separate entries in the source; they are usually repeats but may differ in a detail not shown here. Equal values may be shown once.
Columns and labels:
Assay in all cases: Kinase inhibitor specificity profiling (Reaction Biology Corporation)
Assay type in all cases: biochemical
Design in all cases: % Enzyme Activity (relative to DMSO controls): concentration or dose not given beside the values
[1] = target: T1, panel of 370 protein kinases (Homo sapiens, UniProt O15075); conditions: kinase DCAMKL1
T1 construct: purchased Reaction Biology Corporation (assay service)
T1 sequence (O15075 whole entry): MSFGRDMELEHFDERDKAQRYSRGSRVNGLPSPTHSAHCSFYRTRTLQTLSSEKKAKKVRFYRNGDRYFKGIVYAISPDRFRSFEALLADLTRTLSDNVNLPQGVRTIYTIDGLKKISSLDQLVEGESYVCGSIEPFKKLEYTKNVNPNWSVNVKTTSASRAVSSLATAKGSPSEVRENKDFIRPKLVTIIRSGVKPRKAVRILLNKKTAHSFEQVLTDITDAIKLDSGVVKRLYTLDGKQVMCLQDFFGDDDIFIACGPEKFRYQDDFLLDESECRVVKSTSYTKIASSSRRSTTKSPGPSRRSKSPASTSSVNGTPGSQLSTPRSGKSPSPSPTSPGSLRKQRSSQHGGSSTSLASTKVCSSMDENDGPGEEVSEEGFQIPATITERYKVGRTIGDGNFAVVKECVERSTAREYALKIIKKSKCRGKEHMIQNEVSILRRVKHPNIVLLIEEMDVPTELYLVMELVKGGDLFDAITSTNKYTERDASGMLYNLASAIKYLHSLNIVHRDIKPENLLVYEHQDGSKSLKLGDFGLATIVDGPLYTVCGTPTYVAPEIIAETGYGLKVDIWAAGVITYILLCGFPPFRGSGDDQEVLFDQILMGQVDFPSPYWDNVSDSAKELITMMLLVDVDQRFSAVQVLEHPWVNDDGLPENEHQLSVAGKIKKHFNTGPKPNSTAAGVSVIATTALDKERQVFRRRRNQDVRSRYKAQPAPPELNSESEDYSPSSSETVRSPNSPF

[2] = target: T2, panel of 370 protein kinases (Homo sapiens, UniProt O94804); conditions: kinase LOK/STK10
T2 construct: purchased Reaction Biology Corporation (assay service)
T2 sequence (O94804 whole entry): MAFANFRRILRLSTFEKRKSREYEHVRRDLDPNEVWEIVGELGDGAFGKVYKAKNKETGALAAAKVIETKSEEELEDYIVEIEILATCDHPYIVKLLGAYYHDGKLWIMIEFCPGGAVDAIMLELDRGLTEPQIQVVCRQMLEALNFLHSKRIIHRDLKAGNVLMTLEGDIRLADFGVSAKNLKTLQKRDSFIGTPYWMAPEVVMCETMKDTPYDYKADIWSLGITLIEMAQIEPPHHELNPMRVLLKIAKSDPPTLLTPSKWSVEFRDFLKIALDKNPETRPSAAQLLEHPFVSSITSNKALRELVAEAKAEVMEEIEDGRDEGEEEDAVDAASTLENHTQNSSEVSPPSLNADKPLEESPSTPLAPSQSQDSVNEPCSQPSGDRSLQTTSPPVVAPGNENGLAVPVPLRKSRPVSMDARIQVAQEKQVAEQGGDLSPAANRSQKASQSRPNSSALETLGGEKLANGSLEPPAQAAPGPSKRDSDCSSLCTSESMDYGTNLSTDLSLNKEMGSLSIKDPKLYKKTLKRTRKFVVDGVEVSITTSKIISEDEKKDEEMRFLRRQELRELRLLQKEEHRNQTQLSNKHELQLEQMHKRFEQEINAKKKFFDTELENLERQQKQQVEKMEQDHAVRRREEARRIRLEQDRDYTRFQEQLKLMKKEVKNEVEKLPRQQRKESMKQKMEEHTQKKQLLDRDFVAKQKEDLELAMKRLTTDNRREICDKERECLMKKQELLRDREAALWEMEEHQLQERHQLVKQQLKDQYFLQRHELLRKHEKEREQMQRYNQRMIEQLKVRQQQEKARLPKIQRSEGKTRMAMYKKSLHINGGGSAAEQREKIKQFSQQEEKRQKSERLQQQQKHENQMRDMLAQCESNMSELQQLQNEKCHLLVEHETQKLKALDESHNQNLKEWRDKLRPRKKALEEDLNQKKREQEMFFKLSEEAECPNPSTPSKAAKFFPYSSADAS

[3] = target: T3, panel of 370 protein kinases (Homo sapiens, UniProt P06213); conditions: 2 h, kinase IR; read-out: % Enzyme Activity (relative to DMSO controls)
T3 construct: purchased Reaction Biology Corporation (assay service)

[4] = target: T4, panel of 370 protein kinases (Homo sapiens, UniProt P09619); conditions: 2 h, kinase PDGFRb; read-out: % Enzyme Activity (relative to DMSO controls)
T4 construct: purchased Reaction Biology Corporation (assay service)

[5] = target: T5, panel of 370 protein kinases (Homo sapiens, UniProt P22694); conditions: 2 h, kinase PKAcb; read-out: % Enzyme Activity (relative to DMSO controls)
T5 construct: purchased Reaction Biology Corporation (assay service)

[6] = target: T6, panel of 370 protein kinases (Homo sapiens, UniProt P24941)
T6 construct: purchased Reaction Biology Corporation (assay service)

[7] = target: T7, panel of 370 protein kinases (Homo sapiens, UniProt P32298); conditions: 2 h, kinase GRK4; read-out: % Enzyme Activity (relative to DMSO controls)
T7 construct: purchased Reaction Biology Corporation (assay service)

[8] = target: T8, panel of 370 protein kinases (Homo sapiens, UniProt P35626); conditions: 2 h, kinase GRK3; read-out: % Enzyme Activity (relative to DMSO controls)
T8 construct: purchased Reaction Biology Corporation (assay service)

[9] = target: T9, panel of 370 protein kinases (Homo sapiens, UniProt P51812); conditions: 2 h, kinase RSK2; read-out: % Enzyme Activity (relative to DMSO controls)
T9 construct: purchased Reaction Biology Corporation (assay service)
T9 sequence (P51812 whole entry): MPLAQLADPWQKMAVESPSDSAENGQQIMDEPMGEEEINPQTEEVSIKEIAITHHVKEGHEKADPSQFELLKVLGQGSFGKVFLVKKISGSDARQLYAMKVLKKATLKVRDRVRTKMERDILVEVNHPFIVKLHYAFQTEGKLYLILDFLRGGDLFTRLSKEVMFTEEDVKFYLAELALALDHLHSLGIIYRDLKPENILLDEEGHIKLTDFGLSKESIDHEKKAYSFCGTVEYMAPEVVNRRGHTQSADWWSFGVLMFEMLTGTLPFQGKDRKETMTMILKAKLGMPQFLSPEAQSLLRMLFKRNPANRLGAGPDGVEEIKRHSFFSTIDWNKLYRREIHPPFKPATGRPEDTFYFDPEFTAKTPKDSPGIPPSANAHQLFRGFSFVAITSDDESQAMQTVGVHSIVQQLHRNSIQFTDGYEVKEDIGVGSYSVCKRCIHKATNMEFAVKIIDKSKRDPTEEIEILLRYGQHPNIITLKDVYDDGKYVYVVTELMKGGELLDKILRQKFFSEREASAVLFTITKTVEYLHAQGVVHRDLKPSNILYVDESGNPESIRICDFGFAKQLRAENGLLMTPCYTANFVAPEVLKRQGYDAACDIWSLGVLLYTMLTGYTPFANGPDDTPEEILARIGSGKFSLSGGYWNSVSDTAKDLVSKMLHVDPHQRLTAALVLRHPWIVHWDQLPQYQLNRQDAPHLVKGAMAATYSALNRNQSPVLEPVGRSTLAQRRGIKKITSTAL

[10] = target: T10, panel of 370 protein kinases (Homo sapiens, UniProt P54760); conditions: 2 h, kinase EPHB4; read-out: % Enzyme Activity (relative to DMSO controls)
T10 construct: purchased Reaction Biology Corporation (assay service)
T10 sequence (P54760 16-987): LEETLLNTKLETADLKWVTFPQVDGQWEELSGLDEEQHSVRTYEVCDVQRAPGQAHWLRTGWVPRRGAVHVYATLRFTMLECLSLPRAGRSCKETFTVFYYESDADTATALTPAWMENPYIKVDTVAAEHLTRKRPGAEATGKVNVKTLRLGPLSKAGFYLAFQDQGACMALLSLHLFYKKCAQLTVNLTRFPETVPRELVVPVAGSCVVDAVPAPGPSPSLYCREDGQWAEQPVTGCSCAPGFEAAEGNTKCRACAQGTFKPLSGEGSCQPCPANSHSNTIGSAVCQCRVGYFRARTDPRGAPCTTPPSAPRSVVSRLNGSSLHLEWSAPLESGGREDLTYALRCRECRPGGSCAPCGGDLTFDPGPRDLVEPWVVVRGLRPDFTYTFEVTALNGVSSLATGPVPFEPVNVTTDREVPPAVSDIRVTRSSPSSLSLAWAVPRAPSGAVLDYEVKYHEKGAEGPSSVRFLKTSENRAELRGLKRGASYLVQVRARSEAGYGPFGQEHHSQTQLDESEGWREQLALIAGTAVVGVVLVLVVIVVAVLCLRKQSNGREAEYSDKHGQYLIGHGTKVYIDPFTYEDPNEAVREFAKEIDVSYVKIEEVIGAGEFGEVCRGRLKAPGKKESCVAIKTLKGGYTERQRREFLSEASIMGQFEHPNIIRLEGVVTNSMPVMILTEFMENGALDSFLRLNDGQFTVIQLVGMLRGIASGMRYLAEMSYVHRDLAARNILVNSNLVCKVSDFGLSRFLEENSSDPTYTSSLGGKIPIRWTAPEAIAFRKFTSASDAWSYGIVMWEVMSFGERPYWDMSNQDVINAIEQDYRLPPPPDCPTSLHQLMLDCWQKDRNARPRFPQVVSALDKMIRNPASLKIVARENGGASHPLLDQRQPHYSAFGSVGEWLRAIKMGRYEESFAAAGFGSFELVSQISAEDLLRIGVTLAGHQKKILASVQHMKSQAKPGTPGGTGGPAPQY

[11] = target: T11, panel of 370 protein kinases (Homo sapiens, UniProt Q00526)
T11 construct: purchased Reaction Biology Corporation (assay service)
T11 sequence (Q00526 whole entry): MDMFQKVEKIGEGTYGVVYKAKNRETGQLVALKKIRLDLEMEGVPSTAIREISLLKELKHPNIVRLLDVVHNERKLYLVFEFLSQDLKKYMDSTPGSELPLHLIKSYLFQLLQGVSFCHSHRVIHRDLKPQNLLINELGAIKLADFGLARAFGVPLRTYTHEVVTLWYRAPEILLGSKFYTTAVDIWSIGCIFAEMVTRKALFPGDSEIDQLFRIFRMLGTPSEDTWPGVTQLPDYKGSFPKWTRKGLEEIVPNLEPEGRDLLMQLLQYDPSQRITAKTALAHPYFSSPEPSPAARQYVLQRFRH

[12] = target: T12, panel of 370 protein kinases (Homo sapiens, UniProt Q04771); conditions: 2 h, kinase ALK2/ACVR1; read-out: % Enzyme Activity (relative to DMSO controls)
T12 construct: purchased Reaction Biology Corporation (assay service)

[13] = target: T13, panel of 370 protein kinases (Homo sapiens, UniProt Q13554); conditions: 2 h, kinase CAMK2b; read-out: % Enzyme Activity (relative to DMSO controls)
T13 construct: purchased Reaction Biology Corporation (assay service)

[14] = target: T14, panel of 370 protein kinases (Homo sapiens, UniProt Q16513); conditions: 2 h, kinase PKN2/PRK2; read-out: % Enzyme Activity (relative to DMSO controls)
T14 construct: purchased Reaction Biology Corporation (assay service)

[15] = target: T15, panel of 370 protein kinases (Homo sapiens, UniProt Q8TD08); conditions: 2 h, kinase ERK7/MAPK15; read-out: % Enzyme Activity (relative to DMSO controls)
T15 construct: purchased Reaction Biology Corporation (assay service)

[16] = target: T16, panel of 370 protein kinases (Homo sapiens, UniProt Q96L34); conditions: kinase MARK4
T16 construct: purchased Reaction Biology Corporation (assay service)
T16 sequence (Q96L34 whole entry): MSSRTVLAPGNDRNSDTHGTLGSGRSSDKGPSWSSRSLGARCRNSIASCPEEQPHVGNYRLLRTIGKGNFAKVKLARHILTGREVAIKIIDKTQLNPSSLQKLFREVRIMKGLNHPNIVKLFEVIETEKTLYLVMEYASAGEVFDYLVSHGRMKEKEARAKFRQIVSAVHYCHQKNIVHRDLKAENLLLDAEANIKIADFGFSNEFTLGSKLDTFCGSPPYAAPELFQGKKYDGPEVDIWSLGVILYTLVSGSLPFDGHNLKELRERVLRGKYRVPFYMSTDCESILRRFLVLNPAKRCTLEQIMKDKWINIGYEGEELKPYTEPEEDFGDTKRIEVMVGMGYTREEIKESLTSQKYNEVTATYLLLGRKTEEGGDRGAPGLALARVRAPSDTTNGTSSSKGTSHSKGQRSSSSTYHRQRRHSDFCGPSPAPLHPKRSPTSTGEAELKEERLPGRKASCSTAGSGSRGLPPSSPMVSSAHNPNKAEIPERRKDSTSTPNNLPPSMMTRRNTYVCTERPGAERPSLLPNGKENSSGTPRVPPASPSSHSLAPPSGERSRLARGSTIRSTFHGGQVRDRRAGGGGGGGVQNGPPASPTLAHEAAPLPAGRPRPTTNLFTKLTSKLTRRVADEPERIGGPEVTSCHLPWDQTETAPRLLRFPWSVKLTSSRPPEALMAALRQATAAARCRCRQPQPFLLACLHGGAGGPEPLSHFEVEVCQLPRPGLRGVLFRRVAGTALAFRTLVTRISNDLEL

[17] = target: T17, panel of 370 protein kinases (Homo sapiens, UniProt Q99759); conditions: 2 h, kinase MEKK3; read-out: % Enzyme Activity (relative to DMSO controls)
T17 construct: purchased Reaction Biology Corporation (assay service)

[18] = target: T18, panel of 370 protein kinases (Homo sapiens, UniProt Q9NQU5); conditions: 2 h, kinase PAK6; read-out: % Enzyme Activity (relative to DMSO controls)
T18 construct: purchased Reaction Biology Corporation (assay service)

[19] = target: T19, panel of 370 protein kinases (Homo sapiens, UniProt Q9NWZ3); conditions: kinase IRAK4
T19 construct: purchased Reaction Biology Corporation (assay service)
T19 sequence (Q9NWZ3 whole entry): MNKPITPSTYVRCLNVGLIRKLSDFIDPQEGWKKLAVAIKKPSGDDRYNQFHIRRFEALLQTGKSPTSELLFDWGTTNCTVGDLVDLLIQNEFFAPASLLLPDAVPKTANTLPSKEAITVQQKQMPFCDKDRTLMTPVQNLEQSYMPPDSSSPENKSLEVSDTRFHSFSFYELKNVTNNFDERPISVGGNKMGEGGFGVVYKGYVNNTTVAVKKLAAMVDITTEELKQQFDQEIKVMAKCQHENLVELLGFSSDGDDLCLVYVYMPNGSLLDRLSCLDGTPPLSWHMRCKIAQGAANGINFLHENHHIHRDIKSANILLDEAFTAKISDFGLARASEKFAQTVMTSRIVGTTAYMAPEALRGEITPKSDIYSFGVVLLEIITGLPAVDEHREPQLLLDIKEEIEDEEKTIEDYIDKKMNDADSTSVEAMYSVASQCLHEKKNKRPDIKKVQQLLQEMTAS

[20] = target: T20, panel of 370 protein kinases (Homo sapiens, UniProt Q9UBE8); conditions: 2 h, kinase NLK; read-out: % Enzyme Activity (relative to DMSO controls)
T20 construct: purchased Reaction Biology Corporation (assay service)

Structure (SMILES): CCN1CCN(C(=O)c2ccc(Nc3ncc(F)c(-c4ccc5nc(N(C)C)sc5c4)n3)nc2)CC1 [YK-2-69]
- % Enzyme Activity (relative to DMSO controls) [1]: 112.23% and 104.96%
- % Enzyme Activity (relative to DMSO controls) [2]: 97.88% and 97.48%
- remaining activity at 1 µM [3]: 99.4%
- remaining activity at 1 µM [4]: 97.5%
- remaining activity at 1 µM [5]: 99.7%
- % Enzyme Activity (relative to DMSO controls) ([6]; kinase CDK2/CYCLIN A): 90.79% and 87.87%
- % Enzyme Activity (relative to DMSO controls) ([6]; kinase CDK2/CYCLIN E): 95.30% and 94.87%
- % Enzyme Activity (relative to DMSO controls) ([6]; kinase CDK2/Cyclin A1): 80.25% and 75.26%
- % Enzyme Activity (relative to DMSO controls) ([6]; kinase CDK2/cyclin E2): 104.31% and 100.73%
- % Enzyme Activity (relative to DMSO controls) ([6]; kinase CDK2/cyclin O): 78.97% and 75.52%
- remaining activity at 1 µM [7]: 95.1%
- remaining activity at 1 µM [8]: 108%
- remaining activity at 1 µM [9]: 74.5%
- remaining activity at 1 µM [10]: 106%
- % Enzyme Activity (relative to DMSO controls) ([11]; kinase CDK3/cyclin E): 106.69% and 103.49%
- % Enzyme Activity (relative to DMSO controls) ([11]; kinase CDK3/cyclin E2): 101.82% and 90.67%
- remaining activity at 1 µM [12]: 160%
- remaining activity at 1 µM [13]: 78.5%
- remaining activity at 1 µM [14]: 88.4%
- remaining activity at 1 µM [15]: 65.5%
- % Enzyme Activity (relative to DMSO controls) [16]: 79.55% and 79.20%
- remaining activity at 1 µM [17]: 106%
- remaining activity at 1 µM [18]: 105%
- % Enzyme Activity (relative to DMSO controls) [19]: 99.99% and 96.94%
- remaining activity at 1 µM [20]: 97%

Reference: article PMC9133015 (Nature Communications, 2022)
